Data: patent US9029337B2, “Modulation of factor 7 expression” (Isis Pharmaceuticals, Inc., priority 2007, dated 2015)
Strand notation (5' to 3'): a small letter for the sugar, then the base; units joined by * are phosphorothioate-linked, units joined directly phosphodiester-linked; [ ] holds rarer units or linkages, { } end groups; capitals alone tell only the bases. e = 2'-O-(2-methoxyethyl) (MOE); [5mC] = 5-methylcytosine; d = 2'-deoxy (DNA)

System: human Factor 7 mRNA
Assay: Antisense inhibition of human Factor 7 with short (14-mer) oligonucleotides in HepB3 cells, electroporation 1,000 nM
Type: cell-based
Settings: electroporation, 1,000 nM antisense oligonucleotide, approximately 24 hours, Factor 7 mRNA relative to untreated control cells
Source text: Short antisense oligonucleotides (shortmers) were designed to target a Factor 7 nucleic acid. The shortmers in Table 17 were designed as 2-10-2 MOE gapmers. The gapmers are 14 nucleotides in length, wherein the central gap segment is comprised of 10 2′-deoxynucleotides and is flanked on both sides (in the 5′ and 3′ directions) by wings comprising 2 nucleotides each. Each nucleotide in the 5′ wing segment and each nucleotide in the 3′ wing segment has a 2′-MOE modification. The internucleoside linkages throughout each gapmer are phosphorothioate (P═S) linkages. All cytidine residues throughout each gapmer are 5-methylcytidines.
Shortmers were evaluated for their ability to reduce human Factor 7 mRNA in HepB3 cells and compared with one 5-10-5 chimeric oligonucleotide from Table 16, ISIS 407939. HepB3 cells at a density of 20,000 cells per well in a 96-well plate were transfected using electroporation with 1,000 nM of antisense oligonucleotide. After a treatment period of approximately 24 hours, RNA was isolated from the cells and Factor 7 mRNA levels were measured by real-time RT-PCR, as described herein. Factor 7 mRNA levels were adjusted according to total RNA content as measured by RIBOGREEN®. Results are presented in Table 17 as percent inhibition of Factor 7 mRNA, relative to untreated control cells. ISIS 407939 is the first oligonucleotide in Table 17 to which the shortmers were compared, and is marked by an asterisk (*).

Substance | % Inhibition [%]
435488 (antisense e[5mC]*eA*dG*dT*d[5mC]*d[5mC]*dT*dG*dG*dG*dT*d[5mC]*eA*eT) [compound 435488] | 17
435489 (antisense e[5mC]*eT*dG*dG*dT*dG*dT*dA*d[5mC]*dA*d[5mC]*d[5mC]*e[5mC]*e[5mC]) [compound 435489] | 72
435490 (antisense e[5mC]*e[5mC]*dT*dG*dG*dT*dG*dT*dA*d[5mC]*dA*d[5mC]*e[5mC]*e[5mC]) [compound 435490] | 49
435491 (antisense e[5mC]*e[5mC]*d[5mC]*dT*dG*dG*dT*dG*dT*dA*d[5mC]*dA*e[5mC]*e[5mC]) [compound 435491] | 61
435492 (antisense eA*e[5mC]*d[5mC]*d[5mC]*dT*dG*dG*dT*dG*dT*dA*d[5mC]*eA*e[5mC]) [compound 435492] | 45
435493 (antisense eG*eA*d[5mC]*d[5mC]*d[5mC]*dT*dG*dG*dT*dG*dT*dA*e[5mC]*eA) [compound 435493] | 58
435494 (antisense eA*eG*dA*d[5mC]*d[5mC]*d[5mC]*dT*dG*dG*dT*dG*dT*eA*e[5mC]) [compound 435494] | 47
435495 (antisense eG*eA*dG*dA*d[5mC]*d[5mC]*d[5mC]*dT*dG*dG*dT*dG*eT*eA) [compound 435495] | 27
435496 (antisense eG*eG*dA*dG*dA*d[5mC]*d[5mC]*d[5mC]*dT*dG*dG*dT*eG*eT) [compound 435496] | 47
435497 (antisense eG*eG*dG*dA*dG*dA*d[5mC]*d[5mC]*d[5mC]*dT*dG*dG*eT*eG) [compound 435497] | 27
435498 (antisense eT*eG*dG*dG*dA*dG*dA*d[5mC]*d[5mC]*d[5mC]*dT*dG*eG*eT) [compound 435498] | 37
435499 (antisense e[5mC]*eT*dG*dG*dG*dA*dG*dA*d[5mC]*d[5mC]*d[5mC]*dT*eG*eG) [compound 435499] | 59
435500 (antisense eA*e[5mC]*dT*dG*dG*dG*dA*dG*dA*d[5mC]*d[5mC]*d[5mC]*eT*eG) [compound 435500] | 49
435501 (antisense eT*eA*d[5mC]*dT*dG*dG*dG*dA*dG*dA*d[5mC]*d[5mC]*e[5mC]*eT) [compound 435501] | 51
435502 (antisense eG*eT*dA*d[5mC]*dT*dG*dG*dG*dA*dG*dA*d[5mC]*e[5mC]*e[5mC]) [compound 435502] | 69
